Measurements as given in PubChem BioAssay (NCI).
Values after ≈ are worked out from the molar mass of the structure shown.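 The compound was tested at five concentrations on cells cultured in 96-well plates, with a 48-hour exposure period. Abbreviation: GI50, concentration required for 50% inhibition of growth. At the TGI there is no net growth.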 Non-standard residues stand in square brackets, D forms with d. Residues, ends and D or L forms follow the SMILES beside them. ξ: configuration not given here. *: point of attachment. Boc = CC(C)(C)OC(=O)*; ξV = CC(C)C(N)C(=O)O; OBn = c1ccc(CO*)cc1

Assays:
Assay in all cases: DTP human tumour cell line panel, 48 h
CAKI-1 renal = test system: CAKI-1 renal
U251 CNS = test system: U251 CNS
MCF7 breast = test system: MCF7 breast
UACC-257 melanoma = test system: UACC-257 melanoma
A498 renal = test system: A498 renal
IGROV1 ovarian = test system: IGROV1 ovarian
HL-60(TB) leukemia = test system: HL-60(TB) leukemia
M14 melanoma = test system: M14 melanoma
ACHN renal = test system: ACHN renal
SR leukemia = test system: SR leukemia
KM12 colon = test system: KM12 colon
SF-539 CNS = test system: SF-539 CNS
HCC-2998 colon = test system: HCC-2998 colon
MDA-N = test system: MDA-N
786-0 renal = test system: 786-0 renal
SK-OV-3 ovarian = test system: SK-OV-3 ovarian
SF-295 CNS = test system: SF-295 CNS
A549 NSCLC = test system: A549 NSCLC
HCT-15 colon = test system: HCT-15 colon
NCI/ADR-RES ovarian = test system: NCI/ADR-RES ovarian
SK-MEL-5 melanoma = test system: SK-MEL-5 melanoma
TK-10 renal = test system: TK-10 renal
T-47D breast = test system: T-47D breast
HS 578T breast = test system: HS 578T breast
SNB-75 CNS = test system: SNB-75 CNS
SNB-19 CNS = test system: SNB-19 CNS
HT29 colon = test system: HT29 colon
RPMI-8226 leukemia = test system: RPMI-8226 leukemia
COLO 205 colon = test system: COLO 205 colon
UACC-62 melanoma = test system: UACC-62 melanoma
HCT-116 colon = test system: HCT-116 colon
MDA-MB-435 = test system: MDA-MB-435
HOP-62 NSCLC = test system: HOP-62 NSCLC
SK-MEL-28 melanoma = test system: SK-MEL-28 melanoma
OVCAR-8 ovarian = test system: OVCAR-8 ovarian
SF-268 CNS = test system: SF-268 CNS
DU-145 prostate = test system: DU-145 prostate
EKVX NSCLC = test system: EKVX NSCLC
MOLT-4 leukemia = test system: MOLT-4 leukemia
PC-3 prostate = test system: PC-3 prostate
MDA-MB-231 breast = test system: MDA-MB-231 breast
SW-620 colon = test system: SW-620 colon
HOP-92 NSCLC = test system: HOP-92 NSCLC
CCRF-CEM leukemia = test system: CCRF-CEM leukemia
BT-549 breast = test system: BT-549 breast
OVCAR-3 ovarian = test system: OVCAR-3 ovarian
MALME-3M melanoma = test system: MALME-3M melanoma
SN12C renal = test system: SN12C renal
K-562 leukemia = test system: K-562 leukemia
OVCAR-4 ovarian = test system: OVCAR-4 ovarian
SK-MEL-2 melanoma = test system: SK-MEL-2 melanoma
NCI-H522 lung = test system: NCI-H522 lung
OVCAR-5 ovarian = test system: OVCAR-5 ovarian
NCI-H23 lung = test system: NCI-H23 lung
LOX IMVI melanoma = test system: LOX IMVI melanoma
UO-31 renal = test system: UO-31 renal
RXF 393 renal = test system: RXF 393 renal
NCI-H226 lung = test system: NCI-H226 lung
NCI-H460 lung = test system: NCI-H460 lung

## COc1ccc(C(=O)N2CCc3c([nH]c4ccccc34)C2C(=O)O)o1 (centres undefined)
CAKI-1 renal
  TGI: > 10000 nM
U251 CNS
  TGI: > 10000 nM
MCF7 breast
  TGI: > 10000 nM
UACC-257 melanoma
  TGI: > 10000 nM
A498 renal
  TGI: > 10000 nM
IGROV1 ovarian
  TGI: > 10000 nM
HL-60(TB) leukemia
  TGI: > 10000 nM
M14 melanoma
  TGI: > 10000 nM
ACHN renal
  TGI: > 10000 nM
SR leukemia
  TGI: > 10000 nM
KM12 colon
  TGI: > 10000 nM
SF-539 CNS
  TGI: > 10000 nM
HCC-2998 colon
  TGI: > 10000 nM
MDA-N
  TGI: > 10000 nM
786-0 renal
  TGI: > 10000 nM
SK-OV-3 ovarian
  TGI: > 10000 nM
SF-295 CNS
  TGI: > 10000 nM
A549 NSCLC
  TGI: > 10000 nM
HCT-15 colon
  TGI: > 10000 nM
NCI/ADR-RES ovarian
  TGI: > 10000 nM
SK-MEL-5 melanoma
  TGI: > 10000 nM
TK-10 renal
  TGI: > 10000 nM
T-47D breast
  TGI: > 10000 nM
HS 578T breast
  TGI: > 10000 nM
SNB-75 CNS
  TGI: > 10000 nM
SNB-19 CNS
  TGI: > 10000 nM
HT29 colon
  TGI: > 10000 nM
RPMI-8226 leukemia
  TGI: > 10000 nM
COLO 205 colon
  TGI: > 10000 nM
UACC-62 melanoma
  TGI: > 10000 nM
HCT-116 colon
  TGI: > 10000 nM
MDA-MB-435
  TGI: > 10000 nM
HOP-62 NSCLC
  TGI: > 10000 nM
SK-MEL-28 melanoma
  TGI: > 10000 nM
OVCAR-8 ovarian
  TGI: > 10000 nM
SF-268 CNS
  TGI: > 10000 nM
DU-145 prostate
  TGI: > 10000 nM
EKVX NSCLC
  TGI: > 10000 nM
MOLT-4 leukemia
  TGI: > 10000 nM
PC-3 prostate
  TGI: > 10000 nM
MDA-MB-231 breast
  TGI: > 10000 nM
SW-620 colon
  TGI: > 10000 nM
HOP-92 NSCLC
  TGI: > 10000 nM
CCRF-CEM leukemia
  TGI: > 10000 nM
BT-549 breast
  TGI: > 10000 nM
OVCAR-3 ovarian
  TGI: > 10000 nM
MALME-3M melanoma
  TGI: > 10000 nM
SN12C renal
  TGI: > 10000 nM
K-562 leukemia
  TGI: > 10000 nM
OVCAR-4 ovarian
  TGI: > 10000 nM

## CC(C)C(NC(=O)OC(C)(C)C)C(=O)NCC(=O)OCc1ccccc1 (centres undefined) (Boc-[ξV]-Gly-OBn)
U251 CNS
  GI50: 94.9 µg/mL
MCF7 breast
  GI50: 87 µg/mL
HL-60(TB) leukemia
  GI50: 17.3 µg/mL
  TGI: 44.2 µg/mL
M14 melanoma
  GI50: 35.9 µg/mL
KM12 colon
  GI50: 51.9 µg/mL
HCC-2998 colon
  GI50: 48.2 µg/mL
SK-MEL-2 melanoma
  GI50: 22.5 µg/mL
  TGI: 69.2 µg/mL
MDA-N
  GI50: 57.5 µg/mL (≈ 158 µM)
786-0 renal
  GI50: 24 µg/mL
  TGI: 71.9 µg/mL
HCT-15 colon
  GI50: 31.9 µg/mL
HS 578T breast
  GI50: 98.2 µg/mL
RPMI-8226 leukemia
  GI50: 36.1 µg/mL
  TGI: 86.1 µg/mL
COLO 205 colon
  GI50: 19.7 µg/mL
  TGI: 40.9 µg/mL
HCT-116 colon
  GI50: 22 µg/mL
  TGI: 52.6 µg/mL
NCI-H522 lung
  GI50: 30 µg/mL
MDA-MB-435
  GI50: 44.5 µg/mL
MOLT-4 leukemia
  GI50: 52.7 µg/mL
MDA-MB-231 breast
  GI50: 43 µg/mL
CCRF-CEM leukemia
  GI50: 0.594 µg/mL
  TGI: 30.8 µg/mL
OVCAR-3 ovarian
  GI50: 48.8 µg/mL
K-562 leukemia
  GI50: 18.3 µg/mL
  TGI: 75.1 µg/mL

## O=C1/C(=C\C(Cl)=C/c2ccc([N+](=O)[O-])cc2)SC(=S)N1CCc1ccc(O)cc1
CAKI-1 renal
  GI50: 548 nM
  TGI: 1530 nM
U251 CNS
  GI50: 261 nM
  TGI: 850 nM
OVCAR-5 ovarian
  GI50: 447 nM
  TGI: 1530 nM
MCF7 breast
  GI50: 365 nM
  TGI: 1660 nM
UACC-257 melanoma
  GI50: 1650 nM
  TGI: 4280 nM
A498 renal
  GI50: 1630 nM
  TGI: 3070 nM
IGROV1 ovarian
  GI50: 512 nM
  TGI: 1680 nM
HL-60(TB) leukemia
  GI50: 341 nM
  TGI: 6630 nM
M14 melanoma
  GI50: 494 nM
  TGI: 1840 nM
ACHN renal
  GI50: 249 nM
  TGI: 584 nM
SR leukemia
  GI50: 327 nM
KM12 colon
  GI50: 312 nM
  TGI: 1050 nM
NCI-H23 lung
  GI50: 632 nM
  TGI: 2170 nM
SF-539 CNS
  GI50: 328 nM
  TGI: 1120 nM
HCC-2998 colon
  GI50: 392 nM
  TGI: 1420 nM
SK-MEL-2 melanoma
  GI50: 2010 nM
  TGI: 4370 nM
786-0 renal
  GI50: 255 nM
  TGI: 707 nM
LOX IMVI melanoma
  GI50: 187 nM
  TGI: 387 nM
SK-OV-3 ovarian
  GI50: 2590 nM
  TGI: 6420 nM
SF-295 CNS
  GI50: 501 nM
  TGI: 1060 nM
A549 NSCLC
  GI50: 1600 nM
  TGI: 8790 nM
HCT-15 colon
  GI50: 246 nM
  TGI: 741 nM
NCI/ADR-RES ovarian
  GI50: 342 nM
  TGI: 1780 nM
SK-MEL-5 melanoma
  GI50: 1630 nM
  TGI: 3010 nM
TK-10 renal
  GI50: 1530 nM
  TGI: 3250 nM
T-47D breast
  GI50: 1640 nM
  TGI: 4660 nM
UO-31 renal
  GI50: 324 nM
  TGI: 1240 nM
HS 578T breast
  GI50: 354 nM
  TGI: 2040 nM
SNB-75 CNS
  GI50: 1080 nM
  TGI: 2350 nM
SNB-19 CNS
  GI50: 507 nM
  TGI: 1860 nM
HT29 colon
  GI50: 429 nM
  TGI: 2280 nM
RPMI-8226 leukemia
  GI50: 268 nM
  TGI: 884 nM
COLO 205 colon
  GI50: 882 nM
  TGI: 3640 nM
UACC-62 melanoma
  GI50: 566 nM
  TGI: 1860 nM
RXF 393 renal
  GI50: 472 nM
  TGI: 1110 nM
HCT-116 colon
  GI50: 201 nM
  TGI: 455 nM
NCI-H522 lung
  GI50: 502 nM
  TGI: 2670 nM
MDA-MB-435
  GI50: 552 nM
  TGI: 1950 nM
HOP-62 NSCLC
  GI50: 1410 nM
  TGI: 4220 nM
SK-MEL-28 melanoma
  GI50: 626 nM
  TGI: 1960 nM
OVCAR-8 ovarian
  GI50: 414 nM
  TGI: 4200 nM
SF-268 CNS
  GI50: 831 nM
  TGI: 2770 nM
DU-145 prostate
  GI50: 471 nM
  TGI: 1720 nM
EKVX NSCLC
  GI50: 940 nM
  TGI: 2210 nM
MOLT-4 leukemia
  GI50: 352 nM
  TGI: > 100000 nM
PC-3 prostate
  GI50: 269 nM
  TGI: 845 nM
MDA-MB-231 breast
  GI50: 449 nM
  TGI: 2030 nM
SW-620 colon
  GI50: 324 nM
  TGI: 1260 nM
HOP-92 NSCLC
  GI50: 1600 nM
  TGI: 3290 nM
NCI-H226 lung
  GI50: 1350 nM
  TGI: 3480 nM
NCI-H460 lung
  GI50: 1820 nM
  TGI: 4050 nM
CCRF-CEM leukemia
  GI50: 310 nM
  TGI: 5670 nM
BT-549 breast
  GI50: 332 nM
  TGI: 1280 nM
OVCAR-3 ovarian
  GI50: 400 nM
  TGI: 1430 nM
MALME-3M melanoma
  GI50: 1050 nM
  TGI: 2480 nM
SN12C renal
  GI50: 330 nM
  TGI: 1380 nM
K-562 leukemia
  GI50: 285 nM
  TGI: > 100000 nM
OVCAR-4 ovarian
  GI50: 496 nM
  TGI: 1800 nM
